Measured values as given in ChEMBL document CHEMBL5634123, “Design and synthesis of 1H-benzo[d]imidazole selective HDAC6 inhibitors with potential therapy for multiple myeloma” (Eur J Med Chem, 2023).
The source made the active and inactive calls. The calls are words filed in the database; no cut-off is given here.

Legend:
[1] = target: T1, Protein deacetylase HDAC6 (Homo sapiens, UniProt Q9UBN7); test: Inhibition of HDAC6 (unknown origin) preincubated for 10 mins followed by substrate addition measured for 1 hr by fluorescence based assay
T1 sequence (Q9UBN7 whole entry): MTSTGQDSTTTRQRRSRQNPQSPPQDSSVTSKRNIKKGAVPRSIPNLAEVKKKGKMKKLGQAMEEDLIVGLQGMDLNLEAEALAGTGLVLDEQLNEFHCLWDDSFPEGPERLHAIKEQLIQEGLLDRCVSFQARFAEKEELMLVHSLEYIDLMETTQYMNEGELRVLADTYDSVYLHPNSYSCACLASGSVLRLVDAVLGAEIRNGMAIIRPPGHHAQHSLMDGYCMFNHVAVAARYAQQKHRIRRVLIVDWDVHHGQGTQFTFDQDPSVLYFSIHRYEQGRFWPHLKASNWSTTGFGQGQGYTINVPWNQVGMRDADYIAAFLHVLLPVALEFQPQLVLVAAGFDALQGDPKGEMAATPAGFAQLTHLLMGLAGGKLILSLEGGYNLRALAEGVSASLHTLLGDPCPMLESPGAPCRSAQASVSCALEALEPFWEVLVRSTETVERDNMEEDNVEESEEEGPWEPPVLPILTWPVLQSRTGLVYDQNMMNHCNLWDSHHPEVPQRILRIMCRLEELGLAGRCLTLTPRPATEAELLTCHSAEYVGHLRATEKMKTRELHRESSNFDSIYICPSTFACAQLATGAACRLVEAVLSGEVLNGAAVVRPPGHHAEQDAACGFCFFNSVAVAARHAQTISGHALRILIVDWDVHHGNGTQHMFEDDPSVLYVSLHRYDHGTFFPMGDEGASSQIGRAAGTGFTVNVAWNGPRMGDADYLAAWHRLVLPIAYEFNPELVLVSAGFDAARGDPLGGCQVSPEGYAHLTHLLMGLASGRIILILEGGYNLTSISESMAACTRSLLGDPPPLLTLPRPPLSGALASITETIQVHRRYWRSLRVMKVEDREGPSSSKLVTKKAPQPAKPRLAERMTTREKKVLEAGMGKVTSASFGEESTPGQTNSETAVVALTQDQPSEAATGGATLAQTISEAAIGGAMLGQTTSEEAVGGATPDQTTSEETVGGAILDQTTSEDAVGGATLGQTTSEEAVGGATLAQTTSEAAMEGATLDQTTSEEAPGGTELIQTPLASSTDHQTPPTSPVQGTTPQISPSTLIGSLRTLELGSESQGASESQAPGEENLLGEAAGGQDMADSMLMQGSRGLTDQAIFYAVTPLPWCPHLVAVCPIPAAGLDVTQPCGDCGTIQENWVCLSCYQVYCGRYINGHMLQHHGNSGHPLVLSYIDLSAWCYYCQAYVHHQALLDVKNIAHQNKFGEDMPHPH

[2] = target: Histone deacetylase 1 (Homo sapiens, UniProt Q13547); test: Inhibition of HDAC1 (unknown origin) preincubated for 10 mins followed by substrate addition measured for 1 hr by fluorescence based assay
Histone deacetylase 1, sequence (Q13547 whole entry): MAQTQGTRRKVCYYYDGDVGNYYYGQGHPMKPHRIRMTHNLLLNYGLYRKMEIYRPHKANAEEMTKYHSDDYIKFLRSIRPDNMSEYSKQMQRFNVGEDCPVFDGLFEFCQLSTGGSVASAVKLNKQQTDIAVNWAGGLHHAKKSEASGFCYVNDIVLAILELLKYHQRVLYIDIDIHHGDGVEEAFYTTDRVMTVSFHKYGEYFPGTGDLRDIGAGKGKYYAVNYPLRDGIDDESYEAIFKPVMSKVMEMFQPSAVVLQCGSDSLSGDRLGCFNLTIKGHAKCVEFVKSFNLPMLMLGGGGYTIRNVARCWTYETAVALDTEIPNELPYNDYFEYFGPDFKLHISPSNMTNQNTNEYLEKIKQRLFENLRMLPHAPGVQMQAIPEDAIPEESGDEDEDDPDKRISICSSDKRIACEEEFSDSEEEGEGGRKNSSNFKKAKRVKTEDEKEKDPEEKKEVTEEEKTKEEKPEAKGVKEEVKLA

[3] = system: HCCLM3; test: Cytotoxicity against human HCCLM3 cells assessed as inhibition of cell viability incubated for 24 hrs by CCK8 assay; type: functional, cell-based; conditions: HCCLM3, 24 h
[4] = target: Histone deacetylase 2 (Homo sapiens, UniProt Q92769); test: Inhibition of HDAC2 (unknown origin) preincubated for 10 mins followed by substrate addition by fluorescence based assay
Histone deacetylase 2, sequence (Q92769 whole entry): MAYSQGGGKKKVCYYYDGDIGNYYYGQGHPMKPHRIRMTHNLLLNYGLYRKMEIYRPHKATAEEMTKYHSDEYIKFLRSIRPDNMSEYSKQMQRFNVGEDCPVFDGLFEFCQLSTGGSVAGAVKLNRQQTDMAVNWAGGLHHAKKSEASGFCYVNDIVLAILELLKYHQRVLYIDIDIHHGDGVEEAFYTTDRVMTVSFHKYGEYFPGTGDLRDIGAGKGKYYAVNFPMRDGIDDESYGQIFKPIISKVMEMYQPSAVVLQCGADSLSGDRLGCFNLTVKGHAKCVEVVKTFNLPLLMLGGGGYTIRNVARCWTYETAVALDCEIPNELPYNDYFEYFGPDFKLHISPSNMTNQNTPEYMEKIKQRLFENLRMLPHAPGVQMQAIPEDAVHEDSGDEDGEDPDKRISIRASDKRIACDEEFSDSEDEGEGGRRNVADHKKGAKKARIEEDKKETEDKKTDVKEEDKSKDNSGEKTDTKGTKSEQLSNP

[5] = target: T2, Histone deacetylase 11 (Homo sapiens, UniProt Q96DB2); test: Inhibition of HDAC11 (unknown origin) preincubated for 10 mins followed by substrate addition by fluorescence based assay
T2 sequence (Q96DB2 whole entry): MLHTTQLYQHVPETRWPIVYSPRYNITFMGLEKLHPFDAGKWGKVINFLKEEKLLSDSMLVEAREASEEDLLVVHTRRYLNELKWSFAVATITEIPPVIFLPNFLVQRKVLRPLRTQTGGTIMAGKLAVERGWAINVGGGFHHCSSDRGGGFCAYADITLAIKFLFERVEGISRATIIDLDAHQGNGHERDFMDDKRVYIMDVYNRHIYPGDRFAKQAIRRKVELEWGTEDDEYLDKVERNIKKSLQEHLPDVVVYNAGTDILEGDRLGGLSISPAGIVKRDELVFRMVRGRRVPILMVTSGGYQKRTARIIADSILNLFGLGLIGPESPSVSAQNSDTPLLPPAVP

[6] = system: RPMI-8226; test: Upregulation of Ac-alpha-tubulin expression in human RPMI-8226 cells at 0.1 uM incubated for 24 hrs by Western blot analysis; type: functional, cell-based
[7] = system: RPMI-8226; test: Effect on Ac-H4 expression in human RPMI-8226 cells at 0.1 to 2.5 uM incubated for 24 hrs by Western blot analysis; type: functional, cell-based; conditions: dose 0.1-2.5 µM
[8] = system: RPMI-8226; test: Induction of cell cycle arrest at S phase in human RPMI-8226 cells at 0.1 uM incubated for 24 hrs by PI staining based flow cytometry (reference value: 58.5 %); type: functional
[9] = system: RPMI-8226; test: Induction of apoptosis in human RPMI-8226 cells assessed as necrotic cells at 0.1 uM incubated for 24 hrs by Annexin V-FITC/PI staining based flow cytometry (reference value: 0.90 %); type: functional
[10] = system: RPMI-8226; test: Induction of apoptosis in human RPMI-8226 cells assessed as necrotic cells at 0.5 uM incubated for 24 hrs by Annexin V-FITC/PI staining based flow cytometry (reference value: 0.90 %); type: functional
[11] = system: RPMI-8226; test: Induction of apoptosis in human RPMI-8226 cells assessed as decrease in […] expression at 0.1 to 2.5 uM incubated for 24 hrs by Western blot analysis; type: functional, cell-based; conditions: dose 0.1-2.5 µM
[12] = system: RPMI-8226; test: Induction of apoptosis in human RPMI-8226 cells assessed as increase in Bax expression at 0.1 to 2.5 uM incubated for 24 hrs by Western blot analysis; type: functional, cell-based; conditions: dose 0.1-2.5 µM
[13] = system: RPMI-8226; test: Induction of apoptosis in human RPMI-8226 cells assessed as increase in APAF-1 expression at 0.1 to 2.5 uM incubated for 24 hrs by Western blot analysis; type: functional, cell-based; conditions: dose 0.1-2.5 µM
[14] = Half life in mouse at 1 mg/kg, iv; type: ADME, organism-based; conditions: in vivo
[15] = Cmax in mouse at 10 mg/kg, po; type: ADME, organism-based; conditions: in vivo
[16] = Tmax in mouse at 10 mg/kg, po; type: ADME, organism-based; conditions: in vivo
[17] = Oral bioavailability in mouse at 10 mg/kg; type: ADME, organism-based; conditions: in vivo
[18] = system: RPMI-8226; test: Antitumor activity against human RPMI-8226 cells xenografted in Balb/c nude mouse assessed as ratio of tumor to control at 40 mg/kg, po qd for 21 days administered consecutively relative to control; type: functional; conditions: time 21 day
[19] = Toxicity in Balb/c nude mouse xenografted with human RPMI-8226 cells assessed as adverse effect on serum ALT level at 10 to 40 mg/kg, po qd for 21 days administered consecutively; type: organism-based; conditions: in vivo, 504 h, dose 10-40 mg/kg, time 21 day
[20] = Toxicity in Balb/c nude mouse xenografted with human RPMI-8226 cells assessed as adverse effect on serum AST level at 10 to 40 mg/kg, po qd for 21 days administered consecutively; type: organism-based; conditions: in vivo, 504 h, dose 10-40 mg/kg, time 21 day
[21] = system: RPMI-8226; test: cells; conditions: Homo sapiens, RPMI-8226, 24 h

Cn1c([C@@H](Cc2ccccc2)NCc2ccccc2)nc2cc(C(=O)NO)ccc21
IC50 [1]: 4.63 nM
IC50 [2]: 1130 nM
IC50 [3]: > 50000 nM
IC50 [4]: 1790 nM
IC50 [5]: 983 nM
Activity [6]: inactive
Activity [7]: inactive
Activity [8]: 54%
Activity [9]: 0.45%
Activity [10]: 0.53%
Activity [11]: Active
Activity [12]: Active
Activity [13]: Active
half-life [14]: 41.9 min
Cmax [15]: 177 ng/mL
Tmax [16]: 20 min
bioavailability [17]: 4.6%
T/C [18]: 34.8%
Activity [19]: Non-Toxic
Activity [20]: Non-Toxic
IC50 [21]: 528 nM
